According to PubChem BioAssay (NCI):
“And” between values parts separate entries of the source, which are not always exact repeats. Equal values may be shown once.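 Method: 48-hour compound exposure of cells in 96-well plates, five concentrations, linear interpolation of endpoints. Here, GI50 denotes the concentration required for 50% inhibition of growth. TGI denotes the concentration required for complete inhibition of growth.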

test system: SF-295 CNS; experiment: inhibition of tumour cell growth, NCI panel, 48 h

| Compound | TGI | GI50 [µM] |
| --- | --- | --- |
| CCCCCCCCCCCC(=O)OCCOCCOCCOCCOCCOCc1ccccc1 | > 100 µM | – |
| CCCC1C(=O)CCc2c(OC)ccc(OC)c21 (stereo unspecified) | > 100 µM | – |
| O=C(CCc1nc(=S)[nH][nH]1)Nc1cc(Cl)c(Cl)cc1Cl | > 100 µM | – |
| COc1ccc(CC2c3cc4c(cc3CCN2C)OCO4)c(C=O)c1OC (stereo unspecified) | > 100 µM | – |
| O=C(Nc1nc2ccc([N+](=O)[O-])cc2s1)C(=O)C(C1OC(=O)c2ccccc21)[N+](=O)[O-] (stereo unspecified) | > 100 µM | – |
| COc1cc2c(cc1OCCCCN1CCN(CC(=O)Nc3ccc(Cl)cc3C(=O)c3ccccc3Cl)CC1)N=CC1CCCN1C2=O (stereo unspecified) | 0.509 µM | 0.237 |
| O=C(CCc1nc(=S)[nH][nH]1)Nc1ccc(Cl)c(Cl)c1 | > 100 µM | – |
| COC(=O)C1(C(C)C)CCc2c(OC)ccc(OC)c2C1=O (stereo unspecified) | > 100 µM | – |
| COc1cc2cc(OC)c3cc4c(cc3c2c(OC)c1OC)OCO4 | > 76 µM | – |
| O=C(CC(=O)c1cccc2ccccc12)C(=O)Nc1ccc(Cl)cc1 | > 100 µM | – |
| OCc1cc2ccccc2c2c3c(ccc12)OCO3 | 154 µM | 33.8 |
| CCCCCCCCCCCCCC(=O)OC(/C=C/C(C)C)C(O)C(O)C(OC)C(=O)NC1CCCCN(C)C1=O (stereo unspecified) | 5.97 µM and > 49 µM | – |
| CC1(C(=O)O)CCC[C@@]2(C)C1CC[C@@]1(C)c3cocc3CCC21 (stereo partly specified) | > 100 µM | – |
| CCn1c(C)nn2c(=O)c3ccccc3nc2c1=O | > 100 µM | – |
| COc1cnc2c(c1)C(=O)c1c-2n(CCCN2CCOCC2)c(=O)c2cc(F)ccc12 | 0.864 µM | 0.141 |
| CCOC(=O)CCC1(C(=O)OCC)CCCCC1=O (stereo unspecified) | > 100 µM | – |
| CCOC1Oc2ccccc2C(=O)/C1=C/Nc1ccc(C(C)=O)cc1 (stereo unspecified) | 62.3 µM | 23.9 |
| CCN(CC)CCSc1c2ccccc2nc2cc(NCC(=O)Nc3ccccc3-c3ccccc3NC(=O)CNc3ccc4c(SCCN(CC)CC)c5ccccc5nc4c3)ccc12 | > 100 µM | – |
| Cc1nc2c(ccc3ncccc32)[nH]1 | > 100 µM | – |

| Compound | TGI | GI50 [µM] |
| --- | --- | --- |
| Cc1cc(N(CCC#N)CCC#N)ccc1N=Nc1ccc(S(N)(=O)=O)cc1 | > 100 µM | – |
| CC(=O)[CH-]C(=O)c1ccccc1.CC(=O)[CH-]C(=O)c1ccccc1.CN(C)c1ccc([O-])cc1.CN(C)c1ccc([O-])cc1.Cl.[Ti+4] | > 100 µM | 46.3 |
| CC1(C)C(=O)/C=C\C(=O)C(C)(C)C2=CC=C(O2)C(C)(C)C(=O)/C=C\C(=O)C(C)(C)C2=CC=C1O2 | > 100 µM | – |
| NC(=O)NO.O.O.O.O.O.O.O.O.O.O.O.[Ge].[Ge].[Ge].[Ge].[Ge].[O]=[Ge].[O]=[Ge].[O]=[Ge].[O]=[Ge].[O]=[Ge][OH] | > 100 µM | – |
| CN(C)C(=S)N=C(Nc1ccccc1)Nc1ccccc1 | > 100 µM | – |
| COC(=O)CC[N+]1=CCC(c2ccccc2)(c2ccccc2)O1 | > 100 µM | – |
| CCN(CC)N=Nc1c(C(N)=O)n[nH]c1C | > 100 µM | – |
| CCC[CH2][Sn]([CH2]CCC)([S]c1cccc2cccnc12)[S]c1cccc2cccnc12 | 1.39 µM | 0.404 |
| OCC1=CC(NC2CC(CO)C(O)C(O)C2O)C(O)C(O)C1O (stereo unspecified) | > 100 µM | – |
| OCCN(CCO)c1ncnc2c1ncn2Cc1ccc(CCl)cc1 | 33.6 µM | 17 |
| CCOC(=O)C(C)(C)Oc1ccc2c(-c3ccccc3)cc(=O)oc2c1 | > 100 µM | – |
| CNS(=O)(=O)NNS(=O)(=O)c1ccccc1 | > 100 µM | – |
| Cc1cc(NS(=O)(=O)c2ccc(Nc3c4ccccc4nc4c(C(=O)N5CCN(CCOS(C)(=O)=O)CC5)cccc34)cc2)no1 | > 100 µM | – |
| O=C(O)CCC(NC(=O)c1ccc(Nc2nc3ccccc3nc2-c2cccs2)cc1)C(=O)O (stereo unspecified) | > 100 µM | – |
| NC1=NCCC1(c1ccccc1)c1ccccn1 (stereo unspecified) | > 100 µM | – |
| CNC(=S)OCCC(C)CCCC(C)C (stereo unspecified) | 36 µM | – |
| COC1/C=C/OC2(C)Oc3c(C)c(O)c4c(O)c(c(/C=N/Nc5ccc([N+](=O)[O-])cc5[N+](=O)[O-])c(O)c4c3C2=O)NC(=O)C(C)=C/C=C/C(C)C(O)C(C)C(O)C(C)C(OC(C)=O)C1C (stereo unspecified) | 20.1 µM | 5.64 |
| COC(=O)/C(C#N)=C1\NC(=O)c2ccccc21 | > 100 µM | – |

test system: SK-MEL-5 melanoma; experiment: inhibition of tumour cell growth, NCI panel, 48 h

| Compound | GI50 [µM] | TGI [µM] |
| --- | --- | --- |
| Nc1nc(-n2c(-c3ccccc3)nc3c(Br)cc(Br)cc3c2=O)nnc1-c1cccc(Cl)c1Cl | 4.65 | 28.3 |
| Cc1c(C(=O)C/C(=N/NC(=O)c2ccccc2O)C(=O)Nc2ccccc2C(C)C)[n+](=O)c2ccccc2n1[O-] | – | > 100 |
| CCCCCCCCCCCC(=O)OCCOCCOCCOCCOCCOCc1ccccc1 | – | > 100 |
| CCCC1C(=O)CCc2c(OC)ccc(OC)c21 (stereo unspecified) | – | > 100 |
| O=C(CCc1nc(=S)[nH][nH]1)Nc1cc(Cl)c(Cl)cc1Cl | – | > 100 |
